Results reported in ChEMBL document CHEMBL3885861, “Open TG-GATES”.

Organism: Rattus norvegicus
Assay: Open TG-GATES - Regimen: Single
Assay type: toxicity, organism-based, Sprague-Dawley
Parameters: regimen Single, gender Male, age 6 weeks
Settings: in vivo, po, 24 h, route gavage; for Bas / Eos / Hb / Ht / Lym / MCH / MCHC / MCV / Mono / Neu / Plat / RBC / Ret / WBC: tissue Blood; for KIDNEY_L / KIDNEY_R / KIDNEY_TOTAL: tissue Kidney; for LIVER: tissue Liver; for A/G / ALP / ALT / AST / BUN / CRE / Ca / Cl / DBIL / GLC / IP / K / LDH / Na / PL / RALB / TBIL / TC / TG / TP / gamma-GTP: tissue Plasma

## O=NN1CCOCC1 [N-NITROSOMORPHOLINE]
0 mg/kg, dose level Control
  TERMINAL_BW: 228.1 g
  Bas: 0%
  Eos: 0.6%
  Hb: 12.5 g/dL
  Ht: 38.4%
  Lym: 80%
  MCH: 20.2 pg
  MCHC: 32.5%
  MCV: 62.2 fL
  Mono: 2.2%
  Neu: 16.4%
  Plat: 122.3 x10_4/uL
  RBC: 619.4 x10_4/ul
  Ret: 8%
  WBC: 73.5 x10_2/uL
  KIDNEY_L: 1 g
  KIDNEY_R: 1 g
  KIDNEY_TOTAL: 2.1 g
  LIVER: 10.8 g
  A/G: 1
  ALP: 1437.2 IU/L
  ALT: 38.6 IU/L
  AST: 65.2 IU/L
  BUN: 15.9 mg/dL
  CRE: 0.2 mg/dL
  Ca: 10.8 mg/dL
  Cl: 103.3 meq/L
  DBIL: 0 mg/dL
  GLC: 188 mg/dL
  IP: 6.6 mg/dL
  K: 4.4 meq/L
  LDH: 152.8 IU/L
  Na: 141.3 meq/L
  PL: 162.4 mg/dL
  RALB: 2.9 g/dL
  TBIL: 0.006 mg/dL
  TC: 81.8 mg/dL
  TG: 144.6 mg/dL
  TP: 5.7 g/dL
  gamma-GTP: 1 IU/L
100 mg/kg, dose level Low
  TERMINAL_BW: 215.1 g
  Bas: 0%
  Eos: 0.4%
  Hb: 13.6 g/dL
  Ht: 41.7%
  Lym: 66.4%
  MCH: 20.4 pg
  MCHC: 32.7%
  MCV: 62.4 fL
  Mono: 3.8%
  Neu: 27.8%
  Plat: 110.9 x10_4/uL
  RBC: 669.4 x10_4/ul
  Ret: 7.6%
  WBC: 88.5 x10_2/uL
  KIDNEY_L: 1 g
  KIDNEY_R: 1 g
  KIDNEY_TOTAL: 2 g
  LIVER: 9.2 g
  A/G: 1.1
  ALP: 1723.6 IU/L
  ALT: 134.6 IU/L
  AST: 347.6 IU/L
  BUN: 18.8 mg/dL
  CRE: 0.2 mg/dL
  Ca: 10.8 mg/dL
  Cl: 102 meq/L
  DBIL: 0.046 mg/dL
  GLC: 164.2 mg/dL
  IP: 8 mg/dL
  K: 4.3 meq/L
  LDH: 883.2 IU/L
  Na: 140.8 meq/L
  PL: 141.4 mg/dL
  RALB: 2.8 g/dL
  TBIL: 0.084 mg/dL
  TC: 73.4 mg/dL
  TG: 34.1 mg/dL
  TP: 5.4 g/dL
  gamma-GTP: 0.9 IU/L
300 mg/kg, dose level Middle
  TERMINAL_BW: 212.5 g
  Bas: 0%
  Eos: 0.6%
  Hb: 14.2 g/dL
  Ht: 43.1%
  Lym: 59.2%
  MCH: 20.9 pg
  MCHC: 32.9%
  MCV: 63.4 fL
  Mono: 3.2%
  Neu: 36.2%
  Plat: 115.8 x10_4/uL
  RBC: 680.2 x10_4/ul
  Ret: 7.6%
  WBC: 67.6 x10_2/uL
  KIDNEY_L: 1 g
  KIDNEY_R: 1 g
  KIDNEY_TOTAL: 1.9 g
  LIVER: 8.7 g
  A/G: 1.2
  ALP: 1483.8 IU/L
  ALT: 94.6 IU/L
  AST: 245.8 IU/L
  BUN: 15 mg/dL
  CRE: 0.2 mg/dL
  Ca: 10.7 mg/dL
  Cl: 101.9 meq/L
  DBIL: 0.038 mg/dL
  GLC: 172.6 mg/dL
  IP: 8.1 mg/dL
  K: 4.1 meq/L
  LDH: 426 IU/L
  Na: 140.4 meq/L
  PL: 115.4 mg/dL
  RALB: 3 g/dL
  TBIL: 0.064 mg/dL
  TC: 60.8 mg/dL
  TG: 31.5 mg/dL
  TP: 5.5 g/dL
  gamma-GTP: 1 IU/L
600 mg/kg, dose level High
  TERMINAL_BW: 197.8 g
  Bas: 0%
  Eos: 1%
  Hb: 14.9 g/dL
  Ht: 44.9%
  Lym: 35%
  MCH: 20.6 pg
  MCHC: 33.3%
  MCV: 61.9 fL
  Mono: 2.4%
  Neu: 61.8%
  Plat: 103.6 x10_4/uL
  RBC: 727.4 x10_4/ul
  Ret: 7.5%
  WBC: 51.6 x10_2/uL
  KIDNEY_L: 0.9 g
  KIDNEY_R: 0.9 g
  KIDNEY_TOTAL: 1.8 g
  LIVER: 7.9 g
  A/G: 1.1
  ALP: 1527.2 IU/L
  ALT: 100.4 IU/L
  AST: 304 IU/L
  BUN: 13.9 mg/dL
  CRE: 0.1 mg/dL
  Ca: 10.5 mg/dL
  Cl: 101.5 meq/L
  DBIL: 0.022 mg/dL
  GLC: 174.4 mg/dL
  IP: 8 mg/dL
  K: 4.2 meq/L
  LDH: 476.8 IU/L
  Na: 139.4 meq/L
  PL: 105 mg/dL
  RALB: 3.1 g/dL
  TBIL: 0.044 mg/dL
  TC: 56.2 mg/dL
  TG: 25.4 mg/dL
  TP: 5.7 g/dL
  gamma-GTP: 1.1 IU/L
